# Publication PMC7606612, “Identification of HMGA2 inhibitors by AlphaScreen-based ultra-high-throughput screening assays” (Scientific Reports, 2020)
# How the values were obtained:
# HMGA2-DNA interactions [1] = target: T1, HMGA2-DNA interactions (Mus musculus, UniProt P52927); experiment: Protein-DNA interaction ELISA (PDI-ELISA) assay; type: binding, mammalian; settings: for IC50: inhibition of HMGA2-DNA interactions, PDI-ELISA
# T1 construct: made in house
# T1 sequence (P52927 2-108 limits assumed): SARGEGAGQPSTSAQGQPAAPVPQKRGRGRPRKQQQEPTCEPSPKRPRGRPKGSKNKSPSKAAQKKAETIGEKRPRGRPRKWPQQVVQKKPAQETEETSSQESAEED
# Description: The PDI-ELSA assays were described previously[33] and used to determine the inhibition IC50 against HMGA2-DNA interactions. The apparent inhibitory IC50 values were obtained using the following equation: y=min+(max-min/1+10^((x-logIC50)×Hillslope) , where x, y, max, and min represent the inhibitor’s concentration, the inhibition level, the maximum inhibition value, and the minimum inhibition value, respectively.
# HMGA2 = target: T2, HMGA2 (Mus musculus, UniProt P52927); experiment: Isothermal titration calorimetry (ITC), titration into HMGA2; type: binding, mammalian; settings: for HMGA2 Binding site: number of sites
# T2 construct: made in house
# T2 sequence (P52927 2-108 limits assumed): T1 sequence (P52927 2-108 limits assumed)
# Protocol: (§1) ITC experiments were conducted using a VP-ITC titration calorimeter (MicroCal, Inc., Northampton, MA) interfaced to a PC. Origin 7.0, supplied by the manufacturer was used for data acquisition. […] The heat liberated or absorbed is observed as a peak corresponding to the power required keeping the sample and reference cells at identical temperatures. The peak produced during the injection is converted to heat output by integration and corrected for cell volume and sample concentration. […] The net enthalpy for the titration reaction was determined by subtraction of the component heats of dilution.
# [2] = target: “AT-hook” peptide 3 (ATHP3) (Homo sapiens, UniProt P52926); experiment: Isothermal titration calorimetry (ITC), titration into ATHP3; type: binding; settings: for ATHP3 Ka (M^−1) / ATHP3 Binding site: first line; for ATHP3 Binding site: number of sites
# Protocol: as §1
# [3] = test system: mouse pre-adipocyte 3T3-L1 cells; set-up: method as in PMID 25653160; settings: cited from earlier work
# HMGA2-DNA interactions [4] = target: T1, HMGA2-DNA interactions; experiment: AlphaScreen primary uHTS assay of His-tagged HMGA2 binding to biotin-labeled DNA oligomer FL814; set-up: species or system mammalian; settings: for IC50: positive controls, Fig. S1e; for inhibition at 5 µM / inhibition of HMGA2-FL814 interactions: LOPAC1280 screen, final concentration of 5 µM; for inhibition of HMGA2-DNA interactions (in words): confirmed hits that do not bind to DNA
# Protocol: To address these limitations, we established a new assay using AlphaScreen technology. The assay entails binding a biotin-labeled DNA oligomer FL814 and His-tagged HMGA2 to streptavidin-coated donor beads and nickel chelate (Ni-NTA) acceptor beads, respectively (Fig. 1). A series of DNA binding studies were performed to determine the optimal conditions for the AlphaScreen Primary Assay (Fig. S1a–d). […] These two inhibitors are readily available for purchase and served as positive controls for HMGA2-DNA interaction inhibition in the assay.
# Using a Labcyte Echo 555 acoustic dispenser 5 nL of DMSO were added to columns 1–4 and 45–48 of a white 1536 well plate, while 5 nL of 2 mM compounds in DMSO were added to columns 5–44. Using a Beckman BioRAPTR FRD bulk reagent dispenser 1 µL of assay buffer (30 mM Citrate, 300 mM NaCl, and 0.005% Tween 20) was added to columns 1 and 2. Next 1 µL of assay buffer containing 125 nM HMGA2 was added to columns 3–48 with a Beckman BioRAPTR FRD bulk reagent dispenser. Finally, 1 µL of assay buffer containing 25 nM FL814 was added to every well of the plate using a Beckman BioRAPTR FRD bulk reagent dispenser. The plate was then centrifuged at 200 × g for 1 min. After 30 min at room temperature, 2 µL of bead buffer (10 mM HEPES, 300 mM NaCl and 0.005% Tween 20) containing 20 µg/mL anti-6xHIS acceptor beads and 20 µg/mL streptavidin donor beads were dispensed into every well using a Beckman BioRAPTR FRD bulk reagent dispenser. The plates were then centrifuged at 200 × g for 1 min. After 1 h at room temperature the plates were read on a Perkin Elmer Envision multimode plate reader in AlphaScreen mode.
# HMGA2-DNA interactions [5] = target: T1, HMGA2-DNA interactions; experiment: LANCE TR-FRET secondary assay of HMGA2 binding to FL814; set-up: species or system mammalian; concentration or dose not given beside the values; settings: cherry picked primary hits
# Protocol: In this study, we also developed a LANCE time-resolved fluorescence energy transfer (TR-FRET) assay as a secondary assay for our screening. The His-tagged HMGA2 and biotinylated oligomer FL814 were linked to Europium-labeled anti-6 × His antibody and APC-labeled streptavidin, respectively. A series of DNA binding studies were performed to determine the optimal conditions for the secondary Assay (Fig. S2). After these experiments, 12.5 nM of FL814 and 62.5 nM of HMGA2 were chosen for the assay, which is the same for the primary assay. The assay tolerated up to 0.25% DMSO without any significant change in signal (Fig. S2c). For a counterscreen assay to exclude those compounds that nonspecifically bind to the protein surface, an AlphaScreen assay of H4 peptide binding to bromodomain-containing protein 4 (BRD4) was adopted (Fig. S2e). Since we are looking for compounds with anti-metastasis or anti-obesity activities, compounds with high levels of cytotoxicity are undesirable. […] Furthermore, potential DNA-binding compounds, i.e., DNA intercalators, minor groove binders, and DNA alkylating agents, can be identified by analyzing their chemical structures and will be excluded as well.
# Using a Labcyte Echo 555 acoustic dispenser 5 nL of DMSO were added to columns 1–4 and 45–48 of a white 1536 well plate, while 5 nL of 2 mM compounds in DMSO were added to columns 5–44. Using a Beckman BioRAPTR FRD bulk reagent dispenser 1 µL of assay buffer (10 mM Tris, 300 mM NaCl and 0.005% Tween 20) was added to columns 1 and 2. Next, 1 µL of assay buffer containing 125 nM HMGA2 was added to columns 3–48 with a Beckman BioRAPTR FRD bulk reagent dispenser. Finally, 1 µL of assay buffer containing 25 nM FL814 was added to every well of the plate using a Beckman BioRAPTR FRD bulk reagent dispenser. The plate was then centrifuged at 200 × g for 1 min. After 30 min at room temperature 1 µL of assay buffer containing 250 nM LANCE Ultra ULight-anti-6xHIS and 1 µL of assay buffer containing 12 nM LANCE Eu-W1024 Streptavidin was dispensed into every well using a Beckman BioRAPTR FRD bulk reagent dispenser. The plates were then centrifuged at 200 × g for 1 min. After 1 h at room temperature the plates were read on a Perkin Elmer Envision multimode plate reader in TR-FRET mode (excitation @340 nm, first emission at @665 nm, second emission at 615 nm).
compound,measurement,setting,value
O=C(Nc1cccc(C(=O)Nc2ccc(S(=O)(=O)O)c3cc(S(=O)(=O)O)cc(S(=O)(=O)O)c23)c1)Nc1cccc(C(=O)Nc2ccc(S(=O)(=O)O)c3cc(S(=O)(=O)O)cc(S(=O)(=O)O)c23)c1 [NF023],IC50,HMGA2-DNA interactions [1],10600 ± 460 nM
same,HMGA2 Ka (M^−1),HMGA2; first type of binding sites,2.47 ± 4.53 × 10^6 M^−1
same,HMGA2 Binding site,HMGA2; first type,1.74
same,ATHP3 Ka (M^−1),[2],9.75 ± 3.47 × 10^6 M^−1
same,ATHP3 Binding site,[2],1
O=C(Nc1cc(C(=O)Nc2ccc(S(=O)(=O)O)cc2S(=O)(=O)O)cc(C(=O)Nc2ccc(S(=O)(=O)O)cc2S(=O)(=O)O)c1)Nc1cc(C(=O)Nc2ccc(S(=O)(=O)O)cc2S(=O)(=O)O)cc(C(=O)Nc2ccc(S(=O)(=O)O)cc2S(=O)(=O)O)c1 [NF449],IC50,HMGA2-DNA interactions [1],430 ± 180 nM
same,HMGA2 Ka (M^−1),HMGA2; first type of binding sites,5.53 ± 6.14 × 10^7 M^−1
same,HMGA2 Binding site,HMGA2; first type,0.89
same,HMGA2 Binding site,HMGA2; second type,1.63
same,HMGA2 Ka (M^−1),HMGA2; second type of binding sites,8.17 ± 1.33 × 10^5 M^−1
same,ATHP3 Ka (M^−1),[2],1.10 ± 7.35 × 10^11 M^−1
same,ATHP3 Binding site,[2],0.86
Cn1cc(NC(=O)c2cc(NC(=O)CN=C(N)N)cn2C)cc1C(=O)NCCC(=N)N [netropsin],differentiation of 3T3-L1 cells into adipocytes,[3],strongly inhibited
same,IC50,HMGA2-DNA interactions [4],22 nM
O=S(=O)([O-])c1cccc2ccccc12.[Na+] [sodium 1-naphthalenesulfonate],inhibition of HMGA2-DNA interactions (in words),HMGA2-DNA interactions [1]; SAR of suramin analogues,all of these analogues except sodium 1-naphthalenesulfonate potently inhibit HMGA2-DNA interactions
same,binding to HMGA2 (in words),HMGA2,all these chemical compounds except sodium 1-naphthalenesulfonate strongly bind to both HMGA2 and ATHP3
same,binding to ATHP3 (in words),[2],all these chemical compounds except sodium 1-naphthalenesulfonate strongly bind to both HMGA2 and ATHP3
O=C(O)C1=CC(=C(c2ccc(O)c(C(=O)O)c2)c2ccc(O)c(C(=O)O)c2)C=CC1=O [aurintricarboxylic acid],inhibition of HMGA2-DNA interactions,HMGA2-DNA interactions [5],≥ 50%
same,inhibition at 5 µM,HMGA2-DNA interactions [4],≥ 50%
same,inhibition of HMGA2-DNA interactions (in words),HMGA2-DNA interactions [4],strongly inhibit HMGA2-DNA interactions
N.N.[Cl][Pt][Cl] [cisplatin],inhibition of HMGA2-DNA interactions,HMGA2-DNA interactions [5],≥ 50%
same,inhibition of HMGA2-FL814 interactions,HMGA2-DNA interactions [4],≥ 50%
C=C1C[C@@]23CC[C@H]4[C@@](C)(CCC[C@@]4(C)C(=O)O)[C@@H]2CC[C@]1(O)C3 [steviol],inhibition at 5 µM,HMGA2-DNA interactions [4],≥ 50%
Nc1c(S(=O)(=O)O)cc(Nc2ccc(Nc3nc(Cl)nc(Nc4cccc(S(=O)(=O)O)c4)n3)c(S(=O)(=O)O)c2)c2c1C(=O)c1ccccc1C2=O [reactive blue-2],inhibition of HMGA2-FL814 interactions,HMGA2-DNA interactions [4],≥ 50%
O=C1c2c(O)ccc(O)c2C(=O)c2c(NCCNCCO)ccc(NCCNCCO)c21 [mitoxantrone],inhibition of HMGA2-DNA interactions,HMGA2-DNA interactions [5],≥ 50%
same,inhibition at 5 µM,HMGA2-DNA interactions [4],≥ 50%
COc1cccc2c1C(=O)c1c(O)c3c(c(O)c1C2=O)C[C@@](O)(C(C)=O)C[C@@H]3O[C@H]1C[C@H](NCc2ccc(CN[C@H]3C[C@H](O[C@H]4C[C@](O)(C(C)=O)Cc5c(O)c6c(c(O)c54)C(=O)c4c(OC)cccc4C6=O)O[C@@H](C)[C@H]3O)cc2)[C@H](O)[C@H](C)O1 [WP631],IC50,HMGA2-DNA interactions [4],48 nM
Nc1ccc(-c2nc3ccc(-c4nc5ccc(N)cc5[nH]4)cc3[nH]2)cc1 [Ro 90-7501],inhibition of HMGA2-DNA interactions,HMGA2-DNA interactions [5],≥ 50%
same,inhibition of HMGA2-FL814 interactions,HMGA2-DNA interactions [4],≥ 50%
same,inhibition of HMGA2-DNA interactions (in words),HMGA2-DNA interactions [4],strongly inhibit HMGA2-DNA interactions
"CN(N=O)c1ccc(O)c(O)c1 [methyl-3,4-dephostatin]",inhibition of HMGA2-FL814 interactions,HMGA2-DNA interactions [4],≥ 50%
NC(Cc1cc(O)c(O)cc1O)C(=O)O (racemic) [6-hydroxy-DL-DOPA],inhibition of HMGA2-FL814 interactions,HMGA2-DNA interactions [4],≥ 50%
NF546,IC50,HMGA2-DNA interactions [1],5490 ± 2810 nM
same,HMGA2 Ka (M^−1),HMGA2; first type of binding sites,1.48 ± 0.47 × 10^7 M^−1
same,HMGA2 Binding site,HMGA2; first type,1.83
same,HMGA2 Binding site,HMGA2; second type,1.98
same,HMGA2 Ka (M^−1),HMGA2; second type of binding sites,3.37 ± 8.81 × 10^5 M^−1
same,ATHP3 Ka (M^−1),[2],4.28 ± 0.47 × 10^6 M^−1
same,ATHP3 Binding site,[2],0.81
N#CC(C#N)=C(N)/C(C#N)=C/c1cc(O)c(O)c(O)c1 [tyrphostin 51],inhibition at 5 µM,HMGA2-DNA interactions [4],≥ 50%
O=C1c2ccccc2C(=O)c2c(NCCc3ccc(O)cc3)ccc(NCCc3ccc(O)cc3)c21 [JFD00244],inhibition of HMGA2-FL814 interactions,HMGA2-DNA interactions [4],≥ 50%
N.N.O=C([O-])C1(C(=O)[O-])CCC1.[Pt+2] [carboplatin],inhibition of HMGA2-DNA interactions,HMGA2-DNA interactions [5],≥ 50%
same,inhibition of HMGA2-FL814 interactions,HMGA2-DNA interactions [4],≥ 50%
indirubin-3′-monoxime,inhibition of HMGA2-FL814 interactions,HMGA2-DNA interactions [4],≥ 50%
O=C(Nc1cc(C(=O)Nc2ccc(S(=O)(=O)O)cc2)cc(C(=O)Nc2ccc(S(=O)(=O)O)cc2)c1)Nc1cc(C(=O)Nc2ccc(S(=O)(=O)O)cc2)cc(C(=O)Nc2ccc(S(=O)(=O)O)cc2)c1 [NF110],IC50,HMGA2-DNA interactions [1],870 ± 39 nM
same,HMGA2 Ka (M^−1),HMGA2; first type of binding sites,2.04 ± 0.48 × 10^8 M^−1
same,HMGA2 Binding site,HMGA2; first type,2.06
same,HMGA2 Binding site,HMGA2; second type,1.77
same,HMGA2 Ka (M^−1),HMGA2; second type of binding sites,7.16 ± 0.67 × 10^5 M^−1
same,ATHP3 Ka (M^−1),[2],2.17 ± 0.17 × 10^7 M^−1
same,ATHP3 Binding site,[2],1.01
